Here are results for 13 compounds from patent US9604961B2, “Histone demethylase inhibitors” (Celgene Quanticel Research, Inc., priority 2012, dated 2017).

Assay type in all cases: biochemical
One test addresses Jarid1B (Homo sapiens (Human), UniProt Q9UGL1). Kind of test: Jarid1B in vitro enzyme inhibition assay (TR-FRET).
In a further test the target is JMJD2C (Homo sapiens (Human), UniProt Q9H3R0). Nature of the test: JMJD2C in vitro enzyme inhibition assay (TR-FRET).
In the next test the target is Jarid1A (Homo sapiens (Human), UniProt P29375). Kind of test: Jarid1A in vitro enzyme inhibition assay (TR-FRET). The text has this: The enzymatic assay of Jarid1A activity is based upon Time Resolved-Fluorescence Resonance Energy Transfer (TR-FRET) detection.
Sequence of Jarid1A (P29375 1-1090): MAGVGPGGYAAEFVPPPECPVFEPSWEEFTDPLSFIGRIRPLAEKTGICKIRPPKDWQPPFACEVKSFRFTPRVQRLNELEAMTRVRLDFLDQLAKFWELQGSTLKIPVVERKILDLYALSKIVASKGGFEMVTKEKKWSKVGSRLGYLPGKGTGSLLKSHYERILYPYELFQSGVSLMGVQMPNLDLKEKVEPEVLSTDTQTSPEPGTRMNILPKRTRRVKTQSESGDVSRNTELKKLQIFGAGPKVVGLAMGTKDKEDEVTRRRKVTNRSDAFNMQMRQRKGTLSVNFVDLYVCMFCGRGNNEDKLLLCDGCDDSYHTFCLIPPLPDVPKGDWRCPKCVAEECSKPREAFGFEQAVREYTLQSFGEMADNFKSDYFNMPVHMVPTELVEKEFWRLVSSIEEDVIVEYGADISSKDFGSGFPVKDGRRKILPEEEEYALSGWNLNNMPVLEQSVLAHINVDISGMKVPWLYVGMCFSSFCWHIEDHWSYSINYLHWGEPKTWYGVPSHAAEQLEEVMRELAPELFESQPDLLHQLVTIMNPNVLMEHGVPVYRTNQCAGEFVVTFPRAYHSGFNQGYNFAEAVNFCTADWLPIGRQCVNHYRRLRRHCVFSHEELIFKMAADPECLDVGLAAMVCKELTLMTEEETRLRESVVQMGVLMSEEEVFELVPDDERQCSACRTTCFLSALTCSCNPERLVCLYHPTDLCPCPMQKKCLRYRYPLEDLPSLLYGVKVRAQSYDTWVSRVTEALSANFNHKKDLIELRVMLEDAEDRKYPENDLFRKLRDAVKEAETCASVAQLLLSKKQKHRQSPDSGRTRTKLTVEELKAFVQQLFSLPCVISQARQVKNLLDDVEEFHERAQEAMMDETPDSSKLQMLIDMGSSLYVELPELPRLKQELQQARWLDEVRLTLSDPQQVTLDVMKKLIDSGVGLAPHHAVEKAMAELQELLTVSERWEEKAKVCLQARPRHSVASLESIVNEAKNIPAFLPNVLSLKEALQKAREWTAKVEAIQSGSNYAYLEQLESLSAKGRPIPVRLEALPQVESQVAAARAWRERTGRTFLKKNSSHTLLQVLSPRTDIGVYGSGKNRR
The next test has as its target FBXL10 (Homo sapiens (Human), UniProt Q8NHM5). Kind of test: FBXL10 in vitro enzyme inhibition assay (AlphaScreen). The protocol: Reaction product was determined quantitatively by AlphaScreen detection after the addition of detection reagents anti-H3K36me1 antibody, AlphaScreen® Streptavidin-coated Donor beads, and AlphaScreen® Protein A Acceptor beads in 50 mM HEPES, pH7.3, 10 mM NaCl, 0.005% Brij35, 5 mM EDTA, 2 mg/ml BSA to final 10 μg/ml beads.
Plates were incubated at room temperature for 40 minutes, followed by addition of 3 μl of 50 μg/ml AlphaScreen® Streptavidin-coated Donor beads and AlphaScreen® Protein A Acceptor beads in 50 mM HEPES, pH7.3, 10 mM NaCl, 0.005% Brij35, 5 mM EDTA, 2 mg/ml BSA. Plates were read by EnVisionMultilabel Reader in AlphaScreen mode after a minimum of 2 hour or up to overnight incubation at room temperature. The AlphaScreen signal for each well was used to determine inhibition constant (IC50).

Sequence of FBXL10 (Q8NHM5 1-650): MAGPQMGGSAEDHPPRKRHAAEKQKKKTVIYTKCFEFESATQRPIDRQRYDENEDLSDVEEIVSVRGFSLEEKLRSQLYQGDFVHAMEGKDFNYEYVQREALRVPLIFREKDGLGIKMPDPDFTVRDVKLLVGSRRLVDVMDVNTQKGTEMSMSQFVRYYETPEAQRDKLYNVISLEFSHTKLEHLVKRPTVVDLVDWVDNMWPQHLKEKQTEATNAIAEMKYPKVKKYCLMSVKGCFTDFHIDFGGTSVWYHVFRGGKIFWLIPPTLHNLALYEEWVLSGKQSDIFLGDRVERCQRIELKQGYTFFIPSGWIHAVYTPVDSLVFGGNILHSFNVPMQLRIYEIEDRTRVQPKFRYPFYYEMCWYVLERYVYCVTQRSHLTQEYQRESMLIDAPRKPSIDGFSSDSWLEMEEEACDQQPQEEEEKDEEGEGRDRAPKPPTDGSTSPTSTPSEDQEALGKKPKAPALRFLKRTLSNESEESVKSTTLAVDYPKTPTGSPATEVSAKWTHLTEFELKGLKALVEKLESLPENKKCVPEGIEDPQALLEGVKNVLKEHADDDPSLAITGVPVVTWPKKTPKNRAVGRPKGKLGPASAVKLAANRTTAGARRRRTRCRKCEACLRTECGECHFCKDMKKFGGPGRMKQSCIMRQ
Sequence of JMJD2C (Q9H3R0 2-372): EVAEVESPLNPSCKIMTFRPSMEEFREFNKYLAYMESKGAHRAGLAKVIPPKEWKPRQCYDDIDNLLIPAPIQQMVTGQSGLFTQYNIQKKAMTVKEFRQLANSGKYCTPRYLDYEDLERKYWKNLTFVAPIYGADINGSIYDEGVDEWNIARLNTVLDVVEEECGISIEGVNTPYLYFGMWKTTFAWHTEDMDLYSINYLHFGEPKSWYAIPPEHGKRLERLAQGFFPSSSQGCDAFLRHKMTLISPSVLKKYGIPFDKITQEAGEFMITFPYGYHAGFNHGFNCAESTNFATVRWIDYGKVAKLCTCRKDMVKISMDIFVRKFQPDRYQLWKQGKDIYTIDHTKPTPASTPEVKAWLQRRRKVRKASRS
Sequence of Jarid1B (Q9UGL1 2-751): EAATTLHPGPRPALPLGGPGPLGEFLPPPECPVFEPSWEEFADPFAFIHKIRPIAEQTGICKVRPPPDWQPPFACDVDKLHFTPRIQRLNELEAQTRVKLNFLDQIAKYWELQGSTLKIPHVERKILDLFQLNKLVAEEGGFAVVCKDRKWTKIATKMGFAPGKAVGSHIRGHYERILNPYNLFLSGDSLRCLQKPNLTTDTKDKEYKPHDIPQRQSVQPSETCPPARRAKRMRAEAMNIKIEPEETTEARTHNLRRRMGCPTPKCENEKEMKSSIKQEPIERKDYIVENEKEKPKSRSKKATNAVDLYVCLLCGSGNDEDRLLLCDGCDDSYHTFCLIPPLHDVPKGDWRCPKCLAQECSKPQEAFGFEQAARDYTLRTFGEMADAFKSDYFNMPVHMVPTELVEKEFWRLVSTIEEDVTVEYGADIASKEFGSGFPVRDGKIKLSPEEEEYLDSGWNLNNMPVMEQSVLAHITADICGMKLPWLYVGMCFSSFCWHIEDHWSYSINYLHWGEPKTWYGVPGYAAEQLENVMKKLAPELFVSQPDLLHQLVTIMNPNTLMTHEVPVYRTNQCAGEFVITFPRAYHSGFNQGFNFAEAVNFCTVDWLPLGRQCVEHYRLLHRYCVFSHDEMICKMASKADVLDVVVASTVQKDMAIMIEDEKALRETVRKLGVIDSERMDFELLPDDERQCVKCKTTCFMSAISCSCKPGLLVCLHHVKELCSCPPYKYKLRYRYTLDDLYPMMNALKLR
Description for Jarid1B: This assay determines the ability of a test compound to inhibit Jarid1A, Jarid1B, JMJD2C, and JMJD2A demethylase activity.
The ability of test compounds to inhibit the activity of Jarid1B was determined in 384-well plate format under the following reaction conditions: 0.8 nM Jarid1B, 300 nM H3K4me3-biotin labeled peptide (Anaspec cat #64357), 2 μM alpha-ketoglutaric acid in assay buffer of 50 mM HEPES, pH7.3, 0.005% Brij35, 0.5 mM TCEP, 0.2 mg/ml BSA, 50 μM sodium L-ascorbate, and 2 μM ammonium iron(II) sulfate. Reaction product was determined quantitatively by TR-FRET after the addition of detection reagent Phycolink Streptavidin-allophycocyanin (Prozyme) and Europium-anti-mono- or di-methylated histone H3 lysine 4 (H3K4me1-2) antibody (PerkinElmer) in the presence of 5 mM EDTA in LANCE detection buffer (PerkinElmer) at a final concentration of 25 nM and 1 nM, respectively.
The assay reaction was initiated by the following: 2 μl of the mixture of 900 nM H3K4me3-biotin labeled peptide and 6 μM alpha-ketoglutaric acid with 2 μl of 11-point serial diluted inhibitor in 3% DMSO was added to each well of the plate, followed by the addition of 2 μl of 2.4 nM Jarid1B to initiate the reaction. The reaction mixture was incubated at room temperature for 30 minutes, and terminated by the addition of 6 μl of 5 mM EDTA in LANCE detection buffer containing 50 nM Phycolink Streptavidin-allophycocyanin and 2 nM Europium-anti-H3K4me1-2 antibody. Plates were read by EnVisionMultilabel Reader in TR-FRET mode (excitation at 320 nm, emission at 615 nm and 665 nm) after 1 hour incubation at room temperature. A ratio was calculated (665/615) for each well and fitted to determine inhibition constant (IC50).

Take `Cc1cc(O)n(-c2cc(C(=O)O)ccn2)n1` [Example 1, 2-(5-hydroxy-3-methyl-1H-pyrazol-1-yl)isonicotinic acid]: the IC50 against Jarid1B was less than 100 nM; against JMJD2C, 100 to 1000 nM; against Jarid1A it was 100 to 1000 nM; against FBXL10 it was 100 to 1000 nM.

`Cc1nn(-c2cc(C(=O)O)ccn2)c(O)c1C` [Example 3, 2-(5-hydroxy-3,4-dimethyl-1H-pyrazol-1-yl)isonicotinic acid]: the IC50 on Jarid1B is less than 100 nM; against JMJD2C, 100 to 1000 nM; against Jarid1A, 100 to 1000 nM; against FBXL10 it was 100 to 1000 nM.

In the case of `Cc1nn(-c2cc(C(=O)O)ccn2)c(O)c1-c1ccccc1` [Example 4, 2-(5-hydroxy-3-methyl-4-phenyl-1H-pyrazol-1-yl)isonicotinic acid], the IC50 fell in the range of 1000 to 10000 nM against Jarid1B, 1000 to 10000 nM at JMJD2C, 1000 to 10000 nM against Jarid1A and 100 to 1000 nM on FBXL10.

Consider `O=C(O)c1ccnc(-n2nc(Cc3c(F)cccc3F)cc2O)c1` [Example 161, 2-[3-[(2,6-difluorophenyl)methyl]-5-hydroxypyrazol-1-yl]pyridine-4-carboxylic acid], for which the IC50 is 1000 to 10000 nM against JMJD2C and less than 100 nM on FBXL10.

Consider `CC(c1ccccc1)c1cc(O)n(-c2cc(-c3nnn[nH]3)ccn2)n1` (centres unmarked) [Example 166, 5-(1-phenylethyl)-2-[4-(1H-tetrazol-5-yl)pyridin-2-yl]pyrazol-3-ol], for which the IC50 against JMJD2C was 1000 to 10000 nM; on FBXL10, less than 100 nM.

As for `Oc1cc(Cc2ccccc2Cl)nn1-c1cc(-c2nnn[nH]2)ccn1` [Example 167, 5-[(2-chlorophenyl)methyl]-2-[4-(1H-tetrazol-5-yl)pyridin-2-yl]pyrazol-3-ol], the IC50 against JMJD2C is 1000 to 10000 nM; against FBXL10, less than 100 nM.

For `Oc1cc(Cc2cccc(Cl)c2)nn1-c1cc(-c2nnn[nH]2)ccn1` [Example 168, 5-[(3-chlorophenyl)methyl]-2-[4-(1H-tetrazol-5-yl)pyridin-2-yl]pyrazol-3-ol], the figures for the IC50 at JMJD2C and against FBXL10 were 1000 to 10000 nM and less than 100 nM, respectively.

Turning to `CC(C)(c1ccc(Cl)cc1)c1cc(O)n(-c2cc(C(=O)O)ccn2)n1` [Example 170, 2-[3-[2-(4-chlorophenyl)propan-2-yl]-5-hydroxypyrazol-1-yl]pyridine-4-carboxylic acid], the IC50 was 1000 to 10000 nM against JMJD2C and less than 100 nM at FBXL10.

With `O=C(O)c1ccnc(-n2nc(C3(c4ccc(Cl)cc4)CC3)cc2O)c1` [Example 171, 2-[3-[1-(4-chlorophenyl)cyclopropyl]-5-hydroxypyrazol-1-yl]pyridine-4-carboxylic acid], the IC50 on JMJD2C was 1000 to 10000 nM; at FBXL10, less than 100 nM.

In the case of `O=C(O)c1ccnc(-n2nc(Cc3cc(Cl)cc(Cl)c3)cc2O)c1` [Example 172, 2-[3-[(3,5-dichlorophenyl)methyl]-5-hydroxypyrazol-1-yl]pyridine-4-carboxylic acid], the IC50 on JMJD2C was in the range of 1000 to 10000 nM; against FBXL10, 100 to 1000 nM.

Consider `Cc1cc(F)ccc1Cc1cc(O)n(-c2cc(C(=O)O)ccn2)n1` [Example 173, 2-[3-[(4-fluoro-2-methylphenyl)methyl]-5-hydroxypyrazol-1-yl]pyridine-4-carboxylic acid], for which the half-maximal inhibitory concentration (IC50) against JMJD2C was 1000 to 10000 nM; on FBXL10, less than 100 nM.

`Cc1ccc(Cc2cc(O)n(-c3cc(C(=O)O)ccn3)n2)c(F)c1` [Example 174, 2-[3-[(2-fluoro-4-methylphenyl)methyl]-5-hydroxypyrazol-1-yl]pyridine-4-carboxylic acid]: the IC50 against JMJD2C was 1000 to 10000 nM; against FBXL10, less than 100 nM.

Turning to `O=C(O)c1ccnc(-n2nc(Cc3ccc(F)cc3F)cc2O)c1` [Example 175, 2-[3-[(2,4-difluorophenyl)methyl]-5-hydroxypyrazol-1-yl]pyridine-4-carboxylic acid], the IC50 is 1000 to 10000 nM against JMJD2C and less than 100 nM on FBXL10.
